This is an account of results in US9302999B2, “Substituted triazoles as herbicides” (E. I. DU PONT DE NEMOURS AND COMPANY, priority 2012, dated 2016).

Type in all cases: in vivo
In assay [1] the test system is foxtail, green (green foxtail, Setaria viridis). The assay can be described thus: Test D pre-/postemergence: foxtail, green. The source says:
Seeds of plant species selected from bluegrass (annual bluegrass, Poa annua), blackgrass (Alopecurus myosuroides), canarygrass (Phalaris minor), chickweed (common chickweed, Stellaria media), galium (catchweed bedstraw, Galium aparine), bromegrass, downy (downy bromegrass, Bromus tectorum), field poppy (Papaver rhoeas), field violet (Viola arvensis), foxtail, green (green foxtail, Setaria viridis), deadnettle (henbit deadnettle, Lamium amplexicaule), ryegrass, Italian (Italian ryegrass, Lolium multiflorum), kochia (Kochia scoparia), lambsquarters (Chenopodium album), oilseed rape (Brassica napus), pigweed (Amaranthus retroflexus), Russian thistle (Salsola iberica), chamomile (scentless chamomile, Matricaria inodora), speedwell (bird's-eye speedwell, Veronica persica), barley, spring (spring barley, Hordeum vulgare), wheat, spring (spring wheat, Triticum aestivum), buckwheat, wild (wild buckwheat, Polygonum convolvulus), mustard, wild (wild mustard, Sinapis arvensis), oat, wild (wild oat, Avena fatua), radish, wild (wild radish, Raphanus raphanistrum), windgrass (Apera spica-venti), barley, winter (winter barley, Hordeum vulgare), and wheat, winter (winter wheat, Triticum aestivum) were planted into a silt loam soil and treated preemergence with test chemicals formulated in a non-phytotoxic solvent mixture which included a surfactant. At the same time, these same crop and weed species were planted in pots containing the planting medium comprising spaghnum peat moss, vermiculite, wetting agent and starter nutrients and treated with postemergence applications of the test chemicals formulated in the same manner. Plants ranged in height from 2 to 18 cm (1- to 4-leaf stage).
Treated plants and controls were maintained in a controlled growth environment for 14 to 21 days after which time all species were compared to controls and visually evaluated. Plant response ratings, summarized in Table D, are based on a scale of 0 to 100 where 0 is no effect and 100 is complete control. A dash (-) response means no test result.

Assay [2] relates to ducksalad (Heteranthera limosa). The assay can be described thus: Test C flooded paddy test: ducksalad. As to conditions: scale 0 to 100 (0 no effect, 100 complete control); for pest or weed control at 62 g/ha / pest or weed control at 125 g/ha / pest or weed control at 250 g/ha / pest or weed control at 31 g/ha: Heteranthera limosa, read-out: Plant response rating, Ducksalad. Summed up:
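Visual ratings from 0 (no effect) to 100 (complete control), made against untreated controls 13 to 15 days after treatment, express plant response. Compounds went directly into paddy water over 2-leaf stage plants in pots flooded to 3 cm.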

Assay [3] relates to barnyardgrass (Echinochloa crus-galli). The assay can be described thus: Test A pre-/postemergence: barnyardgrass. The settings on record: for pest or weed control at 125 g/ha / pest or weed control at 500 g/ha: Echinochloa crus-galli, 240 h; for pest or weed control at 125 g/ha: 125 g ai/ha; for pest or weed control at 500 g/ha: 500 g ai/ha; for Barnyardgrass plant response rating: 1000 g ai/ha. In outline:
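Injury is scored visually on a scale where 0 means no effect and 100 complete control, comparing treated with untreated plants after approximately ten greenhouse days. Both preemergence and postemergence applications are made at the same time.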

A further assay deals with kochia (Kochia scoparia). The assay can be described thus: Test C pre-/postemergence: kochia. The source says:
Seeds of plant species selected from blackgrass (Alopecurus myosuroides), bromegrass, downy (downy bromegrass, Bromus tectorum), foxtail, green (green foxtail, Setaria viridis), ryegrass, Italian (Italian ryegrass, Lolium multiflorum), winter wheat (Triticum aestivum), wild oat (Avena fatua), galium (catchweed bedstraw, Galium aparine), bermudagrass (Cynodon dactylon), surinam grass (Brachiaria decumbens), cocklebur (common cocklebur, Xanthium strumarium), corn (Zea mays), large crabgrass (Digitaria sanguinalis), woolly cupgrass (Eriochloa villosa), foxtail, giant (giant foxtail, Setaria faberii), goosegrass (Eleusine indica), johnsongrass (Sorghum halepense), kochia (Kochia scoparia), lambsquarters (Chenopodium album), morningglory (Ipomoea coccinea), nightshade (eastern black nightshade, Solanum ptycanthum), nutsedge, yellow (yellow nutsedge, Cyperus esculentus), pigweed (Amaranthus retroflexus), ragweed (common ragweed, Ambrosia elation), soybean (Glycine max), common (oilseed) sunflower (Helianthus annuus), Russian thistle (Salsola kali) and velvetleaf (Abutilon theophrasti) were planted into a blend of loam soil and sand and treated preemergence with test chemicals formulated in a non-phytotoxic solvent mixture which included a surfactant.
At the same time, plants selected from these crop and weed species and also barley (winter barley, Hordeum vulgare), canarygrass (Phalaris minor), chickweed (common chickweed, Stellaria media) windgrass (Apera spica-venti) and deadnettle (henbit deadnettle, Lamium amplexicaule) were planted in pots containing Redi-Earth® planting medium (Scotts Company, 14111 Scottslawn Road, Marysville, Ohio 43041) comprising spaghnum peat moss, vermiculite, wetting agent and starter nutrients and treated with postemergence applications of test chemicals formulated in the same manner. Plants ranged in height from 2 to 18 cm (1- to 4-leaf stage) for postemergence treatments.
Treated plants and controls were maintained in a greenhouse for 13 to 15 days, after which time all species were compared to controls and visually evaluated. Plant response ratings, summarized in Table C, are based on a scale of 0 to 100 where 0 is no effect and 100 is complete control. A dash (-) response means no test result.

Where [4] appears, read: Postemergence, 31 g ai/ha, scale 0 to 100 (0 no effect, 100 complete control).
Where [5] appears, read: Postemergence, 62 g ai/ha, scale 0 to 100 (0 no effect, 100 complete control).
Where [6] appears, read: Postemergence, 125 g ai/ha, scale 0 to 100, 0 no effect, 100 complete control.
Where [7] appears, read: Flood (flooded paddy test), 62 g ai/ha, visual rating after 13 to 15 days.
The mark [8] stands for this setting: Flood (flooded paddy test), 125 g ai/ha, visual rating after 13 to 15 days.
Where [9] appears, read: Flood (flooded paddy test), 250 g ai/ha, visual rating after 13 to 15 days.
Where [10] appears, read: post-emergence, Postemergence, 0 to 100 scale, 0 is no effect, 100 is complete control, read-out: Barnyardgrass plant response rating.
Setting [11] is: post-emergence, Postemergence, visual rating on 0 to 100 scale (0 no effect, 100 complete control), approximately ten days, read-out: Barnyardgrass plant response rating.
The mark [12] stands for this setting: pre-emergence, Preemergence, 0 to 100 scale (0 no effect, 100 complete control), read-out: Plant response rating, Barnyardgrass.
[13] abbreviates: pre-emergence, Preemergence, 0 to 100 scale, 0 is no effect, 100 is complete control, read-out: Plant response rating, Barnyardgrass.

Where two headings read alike, the source gives them in different places.

Consider `Cc1nn(-c2ccc(F)cc2)nc1Cc1ccnc(C(F)(F)F)c1` [Compound 16, 4-[[2-(4-fluorophenyl)-5-methyl-2H-1,2,3-triazol-4-yl]methyl]-2-(trifluoromethyl)pyridine], for which the “Plant response rating: Foxtail, Green” value in assay [1] (setting [4]) worked out at 30; in assay [1] (setting [5]), 80; in assay [1] (setting [6]), 90; in assay [1] (Postemergence, 250 g ai/ha, scale 0 to 100 (0 no effect, 100 complete control)), 95. The “Plant response rating, Foxtail, Green” value in assay [1] (Postemergence, 16 g ai/ha, scale 0 to 100) was determined as 30; in assay [1] (Preemergence, 16 g ai/ha, scale 0 to 100 (0 no effect, 100 complete control)), 25; in assay [1] (Preemergence, 31 g ai/ha, scale 0 to 100 (0 no effect, 100 complete control)), 100; in assay [1] (Preemergence, 62 g ai/ha, scale 0 to 100) it was 100; in assay [1] (Preemergence, 125 g ai/ha, scale 0 to 100), 100; in assay [1] (Preemergence, 250 g ai/ha, scale 0 to 100), 100. In addition, in assay [2] (setting [7]), the pest or weed control at 62 g/ha was 85%. The results for the pest or weed control at 125 g/ha in assay [2] (setting [8]), in assay [3] (setting [10]) and in assay [3] (setting [12]) were 95%, 90% and 90%, respectively. Besides, in assay [2] (setting [9]), the pest or weed control at 250 g/ha amounted to 100%. Further, the pest or weed control at 31 g/ha in assay [2] (Flood, 31 g ai/ha) amounted to 70%. In addition, the pest or weed control at 500 g/ha in assay [3] (setting [11]) and in assay [3] (setting [13]) was 100% throughout. Besides, the “Plant response rating, Kochia” value in the assay with kochia (Kochia scoparia) (setting [4]) came to 95; with kochia (Kochia scoparia) (setting [5]) it was 98; with kochia (Kochia scoparia) (setting [6]), 98; in the assay with kochia (Kochia scoparia) (Postemergence, 250 g ai/ha, scale 0 to 100) it was 98.
For the compound `COc1nn(-c2ccc(C(F)(F)F)cc2)nc1Cn1ccc(C(F)(F)F)n1` [Compound 17, 4-methoxy-2-[4-(trifluoromethyl)phenyl]-5-[[3-(trifluoromethyl)-1H-pyrazol-1-yl]methyl]-2H-1,2,3-triazole], the pest or weed control at 62 g/ha in assay [2] (setting [7]) turned out to be 0%. Besides, the results for the pest or weed control at 125 g/ha in assay [2] (setting [8]), in assay [3] (setting [10]) and in assay [3] (setting [12]) were 0%, 30% and 30%, respectively. The pest or weed control at 250 g/ha in assay [2] (setting [9]) was 20%. Moreover, the pest or weed control at 31 g/ha in assay [2] (Flood, 31 g ai/ha) was 0%. Besides, the pest or weed control at 500 g/ha in assay [3] (setting [11]) and in assay [3] (setting [13]) was 90% each time.
For `Cc1nn(-c2ccc(C(F)(F)F)cc2)nc1Cc1ccnc(C(F)(F)F)c1` [Compound 47, 4-[[5-methyl-2-[4-(trifluoromethyl)phenyl]-2H-1,2,3-triazol-4-yl]methyl]-2-(trifluoromethyl)pyridine], the pest or weed control at 62 g/ha in assay [2] (setting [7]) turned out to be 90%. Also, the pest or weed control at 125 g/ha in assay [2] (setting [8]), in assay [3] (setting [10]) and in assay [3] (setting [12]) was 90% throughout. In addition, the pest or weed control at 250 g/ha in assay [2] (setting [9]) was determined as 90%. Also, in assay [2] (Flood, 31 g ai/ha), the pest or weed control at 31 g/ha amounted to 0%. The pest or weed control at 500 g/ha in assay [3] (setting [11]) came out at 90%; in assay [3] (setting [13]) it was 100%. For the same compound, the “Plant response rating, Kochia” value in the assay on kochia (Kochia scoparia) (setting [4]) was determined as 65; in the assay on kochia (Kochia scoparia) (Preemergence, 31 g ai/ha, scale of 0 to 100, 0 is no effect, 100 is complete control) it was 85; with kochia (Kochia scoparia) (Preemergence, 62 g ai/ha, scale of 0 to 100, 0 is no effect, 100 is complete control), 90; in the assay on kochia (Kochia scoparia) (Preemergence, 125 g ai/ha, scale 0 to 100, 0 no effect, 100 complete control) it was 98; in the assay with kochia (Kochia scoparia) (Preemergence, 250 g ai/ha, scale 0 to 100, 0 no effect, 100 complete control) it was 98.
As to `Cc1nn(-c2ccc(C(F)(F)F)cc2)nc1Cc1cccc(C(F)(F)F)c1` [Compound 124], the “Plant response rating, Ducksalad” value is recorded as 90 in assay [2] (setting [8]); 90 in assay [2] (setting [9]); 20 in assay [2] (Flood, 31 g ai/ha); 90 in assay [2] (Flood, 62 g ai/ha). The “Barnyardgrass plant response rating” value in assay [3] (Postemergence, visual rating on 0 to 100 scale (0 no effect, 100 complete control), approximately ten days) was 70; in assay [3] (Preemergence, 0 to 100 scale, 0 is no effect, 100 is complete control) it was 90. The “Plant response rating, Kochia” value is given as 75 with kochia (Kochia scoparia) (Postemergence, 16 g ai/ha, scale 0 to 100, 0 no effect, 100 complete control); 80 with kochia (Kochia scoparia) (setting [4]); 80 with kochia (Kochia scoparia) (setting [5]); 85 in the assay with kochia (Kochia scoparia) (setting [6]).
With `CCc1nn(-c2ccc(C(F)(F)F)cc2)nc1Oc1cccc(OC(F)(F)F)c1` [Compound 125, 4-ethyl-5-[3-(trifluoromethoxy)phenoxy]-2-[4-(trifluoromethyl)phenyl]-2H-1,2,3-triazole], the pest or weed control at 125 g/ha in assay [2] (setting [8]) came to 75%; in assay [3] (setting [10]), 0%; in assay [3] (pre-emergence, Preemergence, 0 to 100 scale where 0 is no effect and 100 is complete control, read-out: Plant response rating, Barnyardgrass) it was 30%. In addition, the pest or weed control at 250 g/ha in assay [2] (setting [9]) was 90%. Also, the pest or weed control at 31 g/ha in assay [2] (Flood, 31 g ai/ha) came out at 0%. For the same compound, the pest or weed control at 62 g/ha in assay [2] (Flood, 62 g ai/ha) amounted to 0%. The pest or weed control at 500 g/ha in assay [3] (setting [11]) amounted to 30%; in assay [3] (setting [12]), 50%.
